According to US6313094A, “β-amino-α-hydroxycarboxylic acid derivatives and HIV protease inhibitors” (priority 1990, dated 2001):
Like-named read-outs stand apart in the source and are kept apart here. *1 amine or outer side, *2 acyl side, *3 side chain or, on linkers, in order; H or OH if unused. Where a SMILES comes first, the peptide text is derived from it. [ ]: non-standard residue; d: D form. The star is where a group is joined. X1 = O=C([C@@H](O)[C@H](Cc1ccccc1)N[*:1])[*:2]; PhAc = O=C(Cc1ccccc1)*

Key:
[1] = biological target: T1, chemically synthesized HIV protease (Human immunodeficiency virus type 1 group M subtype B, UniProt P12497, C555A/C583A); format: biochemical
T1 construct: The HIV protease was chemically synthesized; made in house; host or cells: chemical (peptide) synthesis, no expression host
Description: (§1) The HIV protease was chemically synthesized by replacement of two cysteine residues in the natural sequence [Science, 230, 949 (1985)] with alanine residues. The reaction mixture contained 100 mM MES buffer (pH 5.5), 40 mM of substrate (Ac-[…]NH, trifluoroacetate), inhibitors at varying concentrations dissolved in DMSO and 9.2 μg of the HIV protease in a total volume of 15 μl. Incubation was carried out at 37° C. for 60 min. The reaction was started by the addition of the enzyme and terminated by 15 μl of acetonitrile. The amount of a fragment peptide produced was measured by reversed-phase HPLC analysis using an internal standerd. The HPLC condition was as followes.
Solvent A: 0.1% trifluoroacetic acid aqueous solution
Gradient: B was increased in 1.0%/min from 100% of A,

[2] = biological target: recombinant HIV protease (Human immunodeficiency virus type 1 group M subtype B, UniProt P12497); details: inhibitor 5 μM (final concentration); 2.0 μg enzyme
Description: as §1

[3] = inhibitor 5 μM (final concentration)

Row | Molecule | Residual Activity (%) ([1]; inhibitor 50 nM) | Residual Activity (%) [1, 3] [%] | other results
1 | 1-Isoquinolinecarbonyl-Asn-(2S,3S)-AHPBA-Pro-NH-tBu [Example 140] | 72.8 | – | –
2 | 1-NaPhthoxyacetyl-Prg-(2S,3S)-AHPBA-Thz-NH-tBu [Example 180] | 26.0 | – | –
3 | 1-Naphtboxyacetyl-Msv-(2S,3S)-AHPBA-Thz-NH-tBu [Example 155] | 7.3 | – | –
4 | 1-Naphthoxyacetyl-Ile-(2S,3S)-AHPBA-Thz-NH-tBu [Example 161] | 7.0 | – | –
5 | 1-Naphthoxyacetyl-Msa-(2S,3S)-AHPBA-Dmp-NH-tBu [Example 183] | 4.3 | – | –
6 | 1-Naphthoxyacetyl-Msa-(2S,3S)-AHPBA-Thz-NH-chex-ol [Example 158] | – | < 10 | –
7 | 1-Naphthoxyacetyl-Msa-(2S,3S)-AHPBA-Thz-Pip-O--CH3 [Example 159] | 90.8 | – | –
8 | 1-Naphthoxyacetyl-Mta-(2S,3S)-AHPBA-Thz-NH-tBu [Example 162] | 2.9 | – | –
9 | 1-Naphthoxyacetyl-Mtv-(2S,3S)-AHPBA-Thz-NH-tBu [Example 154] | 35.4 | – | –
10 | 1-Napthoxyacetyl-Sma-(2S,3S)-AHPBA-Pro-NH-tBu [Example 98] | 70.5 | – | –
11 | 2-Naphthoxyacetyl-Msa-(2S,3S)-AHPBA-Pro-NH-tBu [Example 131] | 28.8 | – | –
12 | 2-Quinolinecarbonyl-Asn-(2S,3S)-AHPBA-Dtc-NH-tBu [Example 118] | 1.8 | – | –
13 | 3-Phenylpropionyl-Msa-(2S,3S)-AHPBA-Pro-Ile-Val-NH2 [Example 62] | – | 3.2 | –
14 | 3-Phenylpropionyl-Smc(O)-(2S,3S)-AHPBA-Pro-Ile-Val-NH2 [Example 61] | – | 90.9 | –
15 | 5Isoquinoline-O--CH2 CO-Asn-(2S,3S)-AHPBA-Thz-NH-tBu [Example 192] | – | – | inhibitory activity against the HIV protease ([1]; expected, compound only said to be preparable): high inhibitory activity
16 | CC[C@H](C)[C@H](NC(=O)[C@@H]1CCCN1C(=O)[C@@H](O)[C@H](Cc1ccccc1)NC(=O)[C@H](CO)NC(=O)Cc1ccccc1)C(=O)N[C@H](C(N)=O)C(C)C [Example 20, Phenylacetyl-Ser-(2S,3S)-AHPBA-Pro-Ile-Val-NH2] (PhAc-S[X1]PIV-NH2) | – | 42.8 | Residual Activity (%) ([1]; inhibitor 1 mM): 2.8%
17 | CC(C)(C)NC(=O)[C@@H]1CCCN1C(=O)[C@@H](O)[C@H](Cc1ccccc1)NC(=O)[C@H](CC(N)=O)NC(=O)OCc1ccccc1 [Example 55, Benzyloxycarbonyl-Asn-(2S,3S)-AHPBA-Pro-NH-tBu] | – | 3.5 | –
18 | CC(C)(C)NC(=O)[C@@H]1CCCN1C(=O)[C@H](O)[C@H](Cc1ccccc1)NC(=O)[C@H](CC(N)=O)NC(=O)OCc1ccccc1 [Example 56, Benzyloxycarbonyl-Asn-(2R,3S)-AHPBA-Pro-NH-tBu] | – | 95.1 | –
19 | NC(=O)C[C@H](NC(=O)OCc1ccccc1)C(=O)N[C@@H](Cc1ccccc1)[C@H](O)C(=O)N1CCC[C@H]1C(=O)NC1CCCCC1 [Example 84, Benzyloxycarbonyl-Asn-(2S,3S)-AHPBA-Pro-NH--C6 H11] | – | 9.6 | –
20 | CC(C)NC(=O)[C@@H]1CCCN1C(=O)[C@@H](O)[C@H](Cc1ccccc1)NC(=O)[C@H](CC(N)=O)NC(=O)OCc1ccccc1 [Example 85, Benzyloxycarbonyl-Asn-(2S,3S)-AHPBA-Pro-NH--CH(CH3)2] | – | 10.0 | –
21 | CC(C)(C)NC(=O)[C@@H]1CCCN1C(=O)[C@@H](O)[C@H](Cc1ccccc1)NC(=O)[C@H](CS(C)(=O)=O)NC(=O)OCc1cccc2ccccc12 [Example 90, 1-Naphthylmethyloxycarbonyl-Msa-(2S,3S)-AHPBA-Pro-NH-tBu] | – | 1.5 | –
22 | Benzyloxycarbonyl-Asn-(2S3S)-AHPBA-Pro-NHsBu [Example 176] | 82.6 | – | –

Row | Molecule | Residual Activity (%) ([1]; inhibitor 50 nM) | Residual Activity (%) [1, 3] [%] | other results
23 | Benzyloxycarbonyl-Asn-(2S,3S)-AHPBA-(D)-Pip-NH-tBu [Example 79] | – | 84.0 | –
24 | Benzyloxycarbonyl-Asn-(2S,3S)-AHPBA-Cpp-NH-tBu [Example 185] | 96.0 | – | –
25 | Benzyloxycarbonyl-Asn-(2S,3S)-AHPBA-Dtc-NH-tBu [Example 104] | 3.8 | – | –
26 | Benzyloxycarbonyl-Asn-(2S,3S)-AHPBA-Pro-Aib-NH2 [Example 93] | – | < 10 | –
27 | Benzyloxycarbonyl-Asn-(2S,3S)-AHPBA-Pro-Ile-NH--CH2 --C6 H11 [Example 32] | – | 4.0 | residual enzymic activity [2]: 11.0%
28 | Benzyloxycarbonyl-Asn-(2S,3S)-AHPBA-Pro-NH--C(CH3)2 --CH2 OH [Example 99] | 62.2 | – | –
29 | Benzyloxycarbonyl-Asn-(2S,3S)-AHPBA-Pro-NH--CH2 --C(CH3)3 [Example 83] | – | 12.4 | –
30 | Benzyloxycarbonyl-Asn-(2S,3S)-AHPBA-Pro-NH--CH(C2 H5)2 [Example 89] | – | < 10 | –
31 | Benzyloxycarbonyl-Asn-(2S,3S)-AHPBA-Pro-NH-cycloropyl [Example 88] | – | < 10 | –
32 | Benzyloxycarbonyl-Asn-(2S,3S)-AHPBA-Pro-NH-tAmyl [Example 87] | – | 5.8 | –
33 | Benzyloxycarbonyl-Asn-(2S,3S)-AHPBA-Thz-NH-tBu [Example 82] | – | 1.3 | –
34 | Benzyloxycarbonyl-Val-(2R,3S)-AHPBA-Phe-NH--CH2 --CH(CH3)2 [Example 54] | – | 84.9 | –
35 | Benzyloxycarbonyl-Val-(2R,3S)-AHPBA-Phe-Val-NH--CH2 --CH(CH3)2 [Example 53] | – | 83.4 | –
36 | Benzyloxycarbonyt-Asn-(2S,3S)-AHPBA-Ccp-NH-tBu [Example 187] | 99.0 | – | –
37 | Bis(4-chlorophenyl)methyloxyacetyl-Asn-(2S,3S)-AHPBA-Pro-NH-tBu [Example 94] | 37.0 | – | –
38 | Boc-Sma-(2S,3S)-AHPBA-Pro-NH-tBu [Example 97] | – | 92.9 | –
39 | Furancarbonyl-Asn-(2S,3S)-AHPBA-Pro-Ile-Val-NH2 [Example 65] | – | 9.3 | –
40 | PhCH2 -O--CO-Asn-(2S,3S)-AHPBA-(D)-Tic-NH-tBu [Example 103] | 91.4 | – | –
41 | PhCH2 -O--CO-Asn-(2S,3S)-AHPBA-(L)-Tic-NH-tBu [Example 102] | 89.2 | – | –
42 | PhCH2 -O--CO-Asn-(2S,3S)-AHPBA-Pro-NH--CH2 --C6 H11 [Example 49] | – | 51.9 | –
43 | Thiophenecarbonyl-Asn-(2S,3S)-AHPBA-Pro-Ile-Val-NH2 [Example 67] | – | 4.9 | –
